From the Deep4Chem optical property database
Where “and” joins values, the source holds several entries; their conditions need not be identical. Equal values may be shown once.

Assay: photoluminescence quantum yield (fraction); solvent given as SMILES

CN(C)c1ccc(/C=C/c2cc(/C=C/c3ccc(N(C)C)cc3)nc(/C=C/c3ccc(N(c4ccccc4)c4ccccc4)cc3)n2)cc1
photoluminescence quantum yield (in ClCCl): 0.59

N#Cc1c(-n2c3ccccc3c3ccccc32)c(F)c(-n2c3ccccc3c3ccccc32)c(-n2c3ccccc3c3ccccc32)c1-n1c2ccccc2c2ccccc21
photoluminescence quantum yield (in Cc1ccccc1): 0.81 | photoluminescence quantum yield (in c1ccc([Si](c2ccccc2)(c2ccc(-n3c4ccccc4c4ccccc43)cc2)c2ccc(-n3c4ccccc4c4ccccc43)cc2)cc1): 1

O=C1NC(=O)c2ccc3c4ccc5c6c(ccc(c7ccc1c2c73)c64)C(=O)N(c1ccc(Cl)cc1)C5=O
photoluminescence quantum yield (in CN(C)C=O): 0.98

CC(C)[Si]1(C(C)C)c2cc(C=C(C#N)C#N)ccc2-c2ccc(N(C)C)cc21
photoluminescence quantum yield (in C1CCCCC1): 0.08 | photoluminescence quantum yield (in CC#N): 0.32 | photoluminescence quantum yield (in CCO): 0.16 | photoluminescence quantum yield (in CCOCC): 0.56 | photoluminescence quantum yield (in CS(C)=O): 0.23 | photoluminescence quantum yield (in ClCCl): 0.56 | photoluminescence quantum yield (in c1ccccc1): 0.36

CC1=[N+]2C(=C(c3ccc(N4CCCCC4)cc3)c3ccc(C)n3[B-]2(F)F)C=C1
photoluminescence quantum yield (in C1CCCCC1): 0.33 | photoluminescence quantum yield (in C1CCOC1): 0.01 and 0.008 | photoluminescence quantum yield (in CC#N): 0.003 and 0.002 | photoluminescence quantum yield (in CC(=O)C(C)(C)C): 0.004 | photoluminescence quantum yield (in CC(C)=O): 0.002 | photoluminescence quantum yield (in CCCCCC): 0.341 | photoluminescence quantum yield (in CCOC(C)=O): 0.006 and 0.005 | photoluminescence quantum yield (in CO): 0.005 and 0.003 | photoluminescence quantum yield (in Cc1ccccc1): 0.13 | photoluminescence quantum yield (in ClC(Cl)Cl): 0.077

COc1c2ccccc2c(OC)c2c1c1ccc(C(F)(F)F)cc1n2C
photoluminescence quantum yield (in C1CCCCC1): 0.35 | photoluminescence quantum yield (in CC#N): 0.39 | photoluminescence quantum yield (in CO): 0.26 | photoluminescence quantum yield (in ClCCl): 0.36

CC1(C)C2=[N+](CCCCCC(=O)NCCNC(=O)CCCCCN3/C(=C/C=C/C=C/C=C/2)C(C)(C)c2cc(S(=O)(=O)[O-])ccc23)c2ccc(S(=O)(=O)[O-])cc21
photoluminescence quantum yield (in CO): 0.57 | photoluminescence quantum yield (in O): 0.33

Cc1c(-c2ccc(N3c4ccccc4C(C)(C)c4ccccc43)cc2)ncnc1-c1ccc(N2c3ccccc3C(C)(C)c3ccccc32)cc1
photoluminescence quantum yield (in O=P(c1ccccc1)(c1ccccc1)c1ccccc1Oc1ccccc1P(=O)(c1ccccc1)c1ccccc1): 0.75

N#Cc1cccc(N2c3ccccc3C(c3ccccc3)(c3ccccc3)c3ccccc32)c1
photoluminescence quantum yield (in Cc1ccccc1): 0.1

Cc1ccc(C2=C3C=CC(Cl)=[N+]3[B-](F)(F)n3c(Cl)ccc32)cc1
photoluminescence quantum yield (in C1CCCCC1): 0.33 | photoluminescence quantum yield (in C1CCOC1): 0.3 | photoluminescence quantum yield (in CC#N): 0.29 | photoluminescence quantum yield (in CCOC(C)=O): 0.32 | photoluminescence quantum yield (in CO): 0.27 | photoluminescence quantum yield (in Cc1ccccc1): 0.59 | photoluminescence quantum yield (in ClC(Cl)Cl): 0.63

COc1ccc(N2c3cc(OC)ccc3N=c3cc4c(cc32)=Nc2cc(C(C)(C)C)cc(C(C)(C)C)c2O4)cc1
photoluminescence quantum yield (in CCCCCC): 0.31

CC1=CC(C)=[N+]2C1=Cc1c3ccccc3c(C#Cc3ccsc3)n1[B-]2(F)F
photoluminescence quantum yield (in CCCCCC): 1 | photoluminescence quantum yield (in CCCCCCCCO): 0.72 | photoluminescence quantum yield (in CCOC(C)=O): 0.81 | photoluminescence quantum yield (in CN(C)C=O): 0.67 | photoluminescence quantum yield (in ClCCl): 0.8

Cc1cc2cc(N3c4ccccc4Oc4ccccc43)ccc2c(=O)o1
photoluminescence quantum yield (in c1cc(-c2cccc(-n3c4ccccc4c4ccccc43)c2)cc(-n2c3ccccc3c3ccccc32)c1): 0.47

Cc1cc2c3ccccc3[nH]c2c2[nH]c3ccccc3c12
photoluminescence quantum yield (in ClCCl): 0.075

CCCCCCCCOC(=O)c1ccc(-c2cc3ccc4cc(-c5ccc(C(=O)OCCCCCCCC)cc5)cc5ccc(c2)c3c45)cc1
photoluminescence quantum yield (in Cc1ccccc1): 0.33

CCCCCCCCCCOc1ccc(C#Cc2ccc(C#Cc3ccc(OCCCCCCCCCC)c(OCCCCCCCCCC)c3)c3nc4c5ccccc5c5ccccc5c4nc23)cc1OCCCCCCCCCC
photoluminescence quantum yield (in C1CCOC1): 0.23 | photoluminescence quantum yield (in Cc1ccccc1): 0.24 | photoluminescence quantum yield (in ClCCl): 0.22

O=C1c2ccccc2-c2ccc(N3CCOCC3)c3cccc1c23
photoluminescence quantum yield (in C1CCOC1): 0.15 | photoluminescence quantum yield (in CCCCCC): 0.33 | photoluminescence quantum yield (in CCO): 0.12 | photoluminescence quantum yield (in CCOC(C)=O): 0.3 | photoluminescence quantum yield (in CN(C)C=O): 0.14 | photoluminescence quantum yield (in CO): 0.12 | photoluminescence quantum yield (in Cc1ccccc1): 0.64 | photoluminescence quantum yield (in ClC(Cl)(Cl)Cl): 0.18 | photoluminescence quantum yield (in ClC(Cl)Cl): 0.53 | photoluminescence quantum yield (in ClCCl): 0.53 | photoluminescence quantum yield (in c1ccccc1): 0.68

COc1cc(/C=C/c2ccccn2)c(OC)cc1C=O
photoluminescence quantum yield (in C1CCOC1): 0.19 | photoluminescence quantum yield (in CC#N): 0.24 | photoluminescence quantum yield (in CN(C)C=O): 0.21 | photoluminescence quantum yield (in Cc1ccccc1): 0.16 | photoluminescence quantum yield (in ClCCl): 0.36
